Experimental data taken from article PMC10747733, “N-Substituted 2-(Benzenosulfonyl)-1-Carbotioamide Derivatives Exert Antimicrobial and Cytotoxic Effects via Aldehyde Dehydrogenase Pathway: Synthesis, In Silico and In Vitro Studies” (Pharmaceuticals, 2023).
Converted amounts (≈) assume the structure as drawn. “And” between values parts separate entries of the source, which are not always exact repeats. Equal entries are not always repeated.

Assays:
[1] = test system: Candida krusei ATCC 14243; assay: Broth microdilution antimicrobial activity; type: cell-based; settings: for MFC / MIC: Pichia kudriavzevii; for MFC: ATCC14243, read-out: MFC; for MIC: ATCC14243, read-out: MIC
How it was run: (§1)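 Broth microdilution per EUCAST and CLSI guidelines, with Mueller-Hinton broth for bacteria and RPMI 1640 with MOPS for yeast. Inocula were adjusted to 0.5 McFarland, compounds were tested from 2000 to 0.98 µg/mL, and plates were incubated 18–24 h at 35 °C. MBC/MFC came from subculturing MIC wells onto solid medium.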

[2] = test system: Enterococcus faecalis ATCC 29212; assay: Broth microdilution antimicrobial activity; type: cell-based; settings: Enterococcus faecalis ATCC 29212; for MBC / MIC: ATCC29212; for MBC: read-out: MBC; for MIC: read-out: MIC
How it was run: as §1

[3] = test system: Escherichia coli ATCC 25922; assay: Broth microdilution antimicrobial activity; type: cell-based; settings: for MBC / MIC: ATCC25922
How it was run: as §1

[4] = test system: Klebsiella pneumoniae ATCC 13883; assay: Broth microdilution antimicrobial activity; type: cell-based; settings: for MBC / MIC: ATCC13883
How it was run: as §1

[5] = test system: Micrococcus luteus ATCC 10240; assay: Broth microdilution antimicrobial activity; type: cell-based; settings: for MBC / MIC: ATCC10240
How it was run: as §1

[6] = test system: 769-P (renal cell carcinoma); assay: MTT antiproliferative activity assay; type: cell-based, human; settings: for decrease in viability: 769-P; for TI after 24h / TI after 48h: IC50 WS1 / IC50 769-P
Description: (§2) Cancer cell lines originating from different organs, i.e., AGS (stomach—gastric adenocarcinoma), HepG2 (hepatocellular carcinoma), Du145, PC3 (prostate cancer), 769-P (renal cell carcinoma) and physiology cell line WS1 (fibroblasts), were purchased from ATCC. The cell cultures were carried out in an appropriate medium (DMEM or MEM) containing 10% heat-inactivated FBS with penicillin (100 U/mL) and streptomycin (100 U/mL). The cells were kept in a humidified incubator at 37 °C and 5% CO2 and passaged three times before experimenting.
(§3) The antiproliferative properties test for each cancer line was performed in 96-well plates, in which cells with a density of 2 × 10^4 were seeded in 100 µL of medium containing 10% FBS. After 24 h of allowing the cells to attach, the wells were washed with DPBS (Dulbecco’s phosphate-buffered saline) solution and the cells were incubated in fresh medium w/o FBS containing 1 µM, 10 µM, 50 µM, 200 µM or 500 µM of the tested compounds for 24 and 48 h. All substances were first dissolved in DMSO to prepare stock solutions that were then diluted in the medium to obtain a maximum of 0.1% w/v DMSO in the final solution. Each concentration was tested in triplicate. DMSO at a concentration of 0.1% in the medium was also used as a negative control. The antiproliferative activity of the compounds was tested using the MTT test. After each incubation time, the medium containing the test compounds and the negative control was removed, the cells were washed with DPBS solution, and then 100 µL of FBS-free and antibiotic-free fresh medium containing 0.5 mg/mL MTT was added to each well. The plates were incubated for 3 h in an incubator at 37 °C and 5% CO2. After incubation, the medium was removed, the cells were washed with 100 µL of PBS, and 100 µL of DMSO was added to each well to dissolve the purple formazan. The plate was shaken for 3 min and the absorbance was read at 570 nm (BioTek Synergy H1 microplate reader). Cell viability was calculated from the mean of the OD readings. Based on the dose–response curve, IC50 values were calculated (MS Excel). […] Therapeutic index (TI) results were calculated as the ratio of the IC50 of physiological cells to the IC50 of tumor cells.

[7] = test system: PC3 (prostate cancer); assay: MTT antiproliferative activity assay; type: cell-based, human; settings: for TI after 24h: IC50 WS1 / IC50 PC3
Description: as §2, §3

[8] = test system: Gram-positive bacteria; assay: Broth microdilution, summary over reference Gram-positive bacteria; type: cell-based; settings: for share of reference Gram-positive strains with good activity: good activity: MIC 26–125 µg/mL; for share of reference Gram-positive strains with moderate activity: moderate activity: MIC 126–500 µg/mL; for MBC/MIC ratio: most Gram-positive bacteria
Description: Reference strains of microorganisms that came from American Type Culture Collection (ATCC) (Manassas, VA, USA) were used for this study. The representative Gram-positive bacteria were as follows: Staphylococcus aureus ATCC 25923, Staphylococcus aureus ATCC 29213, Staphylococcus aureus ATCC 43300, Staphylococcus epidermidis ATCC 12228, Enterococcus faecalis ATCC 29212, Micrococcus luteus ATCC 10240, Bacillus subtilis ATCC 6633 and Bacillus cereus ATCC 10876. While, those of Gram-negative bacteria were as follows: Bordetella bronchiseptica ATCC 4617, Escherichia coli ATCC 25922, Klebsiella pneumoniae ATCC 13883, Proteus mirabilis ATCC 12453, Salmonella Typhimurium ATCC 14028 and Pseudomonas aeruginosa ATCC 9027. Moreover, the following fungi belonging to yeasts were used: Candida albicans ATCC 10231, Candida albicans ATCC 2091, Candida parapsilosis ATCC 22019, Candida glabrata ATCC 90030 and Candida krusei ATCC 14243.
The new compounds WZ1–WZ4 were assayed for both antibacterial and antifungal activity using the broth microdilution method in accordance with the European Committee on Antimicrobial Susceptibility Testing (EUCAST) and Clinical and Laboratory Standards Institute (CLSI) guidelines. The microorganisms were grown at 35 °C for 18–24 h on appropriate media (nutrient agar and Sabouraud for bacteria and fungi, respectively) (BioMaxima S.A., Lublin, Poland). Next, microbial suspensions with an optical density of 0.5 McFarland standard scale (in sterile 0.85% NaCl) were prepared. In turn, the tested compounds were initially diluted at 50 mg/mL in dimethyl sulfoxide (DMSO) and the broth microdilution method was used to assess their minimum inhibitory concentrations (MICs). For these studies, selective broth Mueller-Hinton (MH) (BioMaxima S.A., Lublin, Poland) and RPMI (Roswell Park Memorial Institute) 1640 with MOPS (3-(N-Morpholino)propanesulfonic acid) (Sigma-Aldrich Chemicals, St. Louis, MO, USA) were used for bacteria and fungi, respectively. The antimicrobial effect of compounds WZ1–WZ4 was determined in the concentration range from 2000 to 0.98 µg/mL.
Then, the microbial suspensions were introduced into each well of the microplate and incubated for 18–24 h at 35 °C. […] The reference drugs ciprofloxacin or vancomycin (against bacteria) and nystatin (against fungi) (Sigma-Aldrich Chemicals, St. Louis, MO, USA) were also used. Next, the values of the minimum bactericidal concentration (MBC) and minimum fungicidal concentration (MFC) of WZ1–WZ4 were assessed. For this purpose, the cultures from each MIC determination well were transferred to a suitable solid medium and incubated under appropriate conditions. The lowest concentrations of compounds without microbial growth were read as MBC or MFC. The studies were performed in triplicate and representative data were gathered.
In turn, the MBC/MIC or MFC/MIC ratios were used to assess bactericidal/fungicidal (MBC/MIC or MFC/MIC ≤ 4) and bacteriostatic/fungistatic (MBC/MIC or MFC/MIC > 4) effect of these compounds [93].

[9] = almost all Gram-positive bacteria

Row | SMILES | MFC/MIC [1] | MFC [1] [µg/mL] | MIC [1] [µg/mL] | MBC [2] [µg/mL] | MIC [2] [µg/mL] | MBC/MIC [2] | MBC/MIC [3] | MBC [3] [µg/mL] | MIC [3] [µg/mL] | MBC/MIC [4] | MBC [4] [µg/mL] | MIC [4] [µg/mL] | MBC/MIC [5] | MBC [5] [µg/mL] | MIC [5] [µg/mL] | decrease in viability ([6]; 48 h, 1 µM) | TI after 24h ([6]; 24 h) | TI after 48h ([6]; 48 h) | TI after 24h ([7]; 24 h) | decrease in viability ([7]; PC3, 48 h, 200 µM) | other results
1 | CCCCCCNC(=S)NNS(=O)(=O)c1ccccc1 [WZ3, 2-(Benzenesulfonyl)-N-Hexylhydrazine-1-Carbothioamide] | 2 | 1000 (≈ 3170 µM) | 500 (≈ 1580 µM) | > 2000 | 500 (≈ 1580 µM) | > 4 | > 4 | > 2000 | 500 (≈ 1580 µM) | > 2 | > 2000 | 1000 (≈ 3170 µM) | 2 | 500 (≈ 1580 µM) | 250 (≈ 792 µM) | ~ 48% | 0.078 | 115.134 | 2.291 | ~ 11% | decrease in viability ([6]; 24 h, 1 µM): ~ 22%; decrease in viability ([6]; 24 h, 200 µM): ~ 22%; viability (reduced to) ([7]; PC3, 24 h, 50 µM): ~ 76%; MIC ([8]; Bacillus subtilis, remaining Gram-positive microorganisms (other than B. subtilis)): 250 to 500 µg/mL (≈ 792 to 1580 µM); MIC [8, 9]: 62.5 to 500 µg/mL (≈ 198 to 1580 µM); share of reference Gram-positive strains with good activity ([8]; 8 strains): 12.5%; share of reference Gram-positive strains with moderate activity ([8]; 8 strains): 87.5%; MBC/MIC ratio [8]: 1–4
2 | CNC(=S)NNS(=O)(=O)c1ccccc1 [WZ4, 2-(Benzenesulfonyl)-N-Methylhydrazine-1-Carbothioamide] | 4 | 2000 (≈ 8150 µM) | 500 (≈ 2040 µM) | > 2000 | 1000 (≈ 4080 µM) | > 2 | > 1 | > 2000 | > 2000 | > 1 | > 2000 | > 2000 | 2 | 500 (≈ 2040 µM) | 250 (≈ 1020 µM) | ~ 16% | 1.653 | 15.763 | 0.920 and < 1 | ~ 32% | decrease in viability ([6]; 24 h, across 10–500 µM): 21–56%; decrease in viability ([6]; 48 h, across 1–500 µM): 16–82%; decrease in viability ([7]; PC3, 24 h, 50 µM): ~ 27%; MIC ([8]; Staphylococcus aureus ATCC 43300, Staphylococcus aureus ATCC 25923 and Micrococcus luteus): 250 to 500 µg/mL (≈ 1020 to 2040 µM); MIC ([8]; Staphylococcus epidermidis, Bacillus subtilis and Bacillus cereus): 62.5 to 125 µg/mL (≈ 255 to 510 µM); MIC [8, 9]: 62.5 to 500 µg/mL (≈ 255 to 2040 µM); share of reference Gram-positive strains with good activity ([8]; 8 strains): 37.5%; share of reference Gram-positive strains with mild activity ([8]; mild activity: MIC 501–1000 µg/mL, 8 strains): 25%; share of reference Gram-positive strains with moderate activity ([8]; 8 strains): 37.5%; MBC/MIC ratio [8]: 1–4
